For assay [1], the system named is Mus musculus. In words: Anti-inflammatory activity against MOG35-55-induced experimental autoimmune encephalomyelitis C57BL/6 mouse model assessed as fold change in H2EB1 (HLA-DRB1) gene expression in brain at 600 mg/kg/day, ig for 14 days starting from 12th day of immunization by RT-qPCR analysis relative to control. In kind it is functional. Conditions: time 14 day. On the technique in general: Real-time PCR tracks product formation cycle by cycle.

The subject of assay [2] is Mus musculus. In words: Anti-inflammatory activity against MOG35-55-induced experimental autoimmune encephalomyelitis C57BL/6 mouse model assessed as fold change in MBP gene expression in brain at 300 mg/kg/day, ig for 14 days starting from 12th day of immunization by RT-qPCR analysis relative to control. In kind it is functional. Particulars: time 14 day.
Assay [3] deals with Mus musculus. As to the kind of experiment: Anti-inflammatory activity against MOG35-55-induced experimental autoimmune encephalomyelitis C57BL/6 mouse model assessed as increase in serum IL-10 level at 600 mg/kg/day, ig for 14 days starting from 12th day of immunization by ELISA. In kind it is functional, organism-based. Particulars: time 14.0 day. In general terms: In an ELISA, binding on a coated surface is turned into a signal by an enzyme label.

The test system of assay [4] is Mus musculus. As to the kind of experiment: Anti-inflammatory activity against MOG35-55-induced experimental autoimmune encephalomyelitis C57BL/6 mouse model assessed as reduction in serum chemokines level by measuring reduction in […] level at 600 mg/kg/day, ig for 14 days starting from 12th day of immunization by ELISA. Format: functional, organism-based. Particulars: time 14.0 day.

Assay [5] relates to Mus musculus. In words: Anti-inflammatory activity against MOG35-55-induced experimental autoimmune encephalomyelitis C57BL/6 mouse model assessed as methylation of CpG sites of SOCS5 gene promoter in brain at 600 mg/kg, ig for 14 days starting from 12th day of immunization by PCR analysis (reference value: 10.6 +/-4%). Format: functional. Particulars: time 14 day.
Assay [6] has as its system Mus musculus. In words: Anti-inflammatory activity against MOG35-55-induced experimental autoimmune encephalomyelitis C57BL/6 mouse model assessed as fold change in MAG gene expression in brain at 600 mg/kg/day, ig for 14 days starting from 12th day of immunization by RT-qPCR analysis relative to control. In kind it is functional. Conditions: time 14 day.
Assay [7] has as its system Mus musculus. As to the kind of experiment: Anti-inflammatory activity against MOG35-55-induced experimental autoimmune encephalomyelitis C57BL/6 mouse model assessed as fold change in NFKB gene expression in brain at 300 mg/kg/day, ig for 14 days starting from 12th day of immunization by RT-qPCR analysis relative to control. Format: functional. Conditions: time 14 day.

The test system of assay [8] is Mus musculus. As to the kind of experiment: Anti-inflammatory activity against MOG35-55-induced experimental autoimmune encephalomyelitis C57BL/6 mouse model assessed as upregulation of PLP protein expression in brain at 300 to 600 mg/kg/day, ig for 14 days starting from 12th day of immunization by western blot analysis relative to control. Format: functional. Conditions: dose 300-600 mg/kg/day, time 14 day. A general note: A western blot detects proteins with antibodies after separation by electrophoresis.

For assay [9], the system named is Mus musculus. In words: Anti-inflammatory activity against MOG35-55-induced experimental autoimmune encephalomyelitis C57BL/6 mouse model assessed as fold change in CXCL9 gene expression in brain at 600 mg/kg/day, ig for 14 days starting from 12th day of immunization by RT-qPCR analysis relative to control. In kind it is functional. Particulars: time 14 day.
Assay [10] relates to Mus musculus. In words: Anti-inflammatory activity against MOG35-55-induced experimental autoimmune encephalomyelitis C57BL/6 mouse model assessed as reduction in serum Th1 cytokine level by measuring reduction in TNF-alpha level at 600 mg/kg/day, ig for 14 days starting from 12th day of immunization by ELISA. Format: functional, organism-based. Particulars: time 14.0 day.
For assay [11], the system named is Mus musculus. In words: Anti-inflammatory activity against MOG35-55-induced experimental autoimmune encephalomyelitis C57BL/6 mouse model assessed as reduction in MMP9 protein expression in brain at 300 to 600 mg/kg/day, ig for 14 days starting from 12th day of immunization by western blot analysis relative to control. Format: functional. Particulars: dose 300-600 mg/kg/day, time 14 day.

For assay [12], the system named is Mus musculus. As to the kind of experiment: Anti-inflammatory activity against MOG35-55-induced experimental autoimmune encephalomyelitis C57BL/6 mouse model assessed as fold change in TNF-alpha gene expression in brain at 600 mg/kg/day, ig for 14 days starting from 12th day of immunization by RT-qPCR analysis relative to control. In kind it is functional. Particulars: time 14 day.

In assay [13] the test system is Mus musculus. As to the kind of experiment: Anti-inflammatory activity against MOG35-55-induced experimental autoimmune encephalomyelitis C57BL/6 mouse model assessed as reduction in EAE symptoms by measuring neurological regeneration and behavioral impotence at 600 mg/kg/day, ig for 14 days starting from 12th day of immunization. In kind it is functional, organism-based. Conditions: time 14.0 day.

For assay [14], the system named is Mus musculus. In words: Anti-inflammatory activity against MOG35-55-induced experimental autoimmune encephalomyelitis C57BL/6 mouse model assessed as fold change in CXCL10 gene expression in brain at 600 mg/kg/day, ig for 14 days starting from 12th day of immunization by RT-qPCR analysis relative to control. In kind it is functional. Particulars: time 14 day.

The test system of assay [15] is Mus musculus. In words: Anti-inflammatory activity against MOG35-55-induced experimental autoimmune encephalomyelitis C57BL/6 mouse model assessed as fold change in APP gene expression in brain at 600 mg/kg/day, ig for 14 days starting from 12th day of immunization by RT-qPCR analysis relative to control. Conditions: time 14 day. Format: functional.
The test system of assay [16] is Mus musculus. In words: Anti-inflammatory activity against MOG35-55-induced experimental autoimmune encephalomyelitis C57BL/6 mouse model assessed as fold change in HIF1A gene expression in brain at 0.3 mg/kg/day, ig for 14 days starting from 12th day of immunization by RT-qPCR analysis relative to control. Format: functional. Particulars: time 14 day.
For assay [17], the system named is Mus musculus. As to the kind of experiment: Anti-inflammatory activity against MOG35-55-induced experimental autoimmune encephalomyelitis C57BL/6 mouse model assessed as reduction in serum chemokines level by measuring reduction in FASL level at 0.3 mg/kg/day, ig for 14 days starting from 12th day of immunization by ELISA. Format: functional, organism-based. Particulars: time 14.0 day.

Assay [18] relates to Mus musculus. In words: Anti-inflammatory activity against MOG35-55-induced experimental autoimmune encephalomyelitis C57BL/6 mouse model assessed as fold change in C1S gene expression in brain at 0.3 mg/kg/day, ig for 14 days starting from 12th day of immunization by RT-qPCR analysis relative to control. In kind it is functional. Particulars: time 14 day.
Assay [19] deals with Mus musculus. In words: Anti-inflammatory activity against MOG35-55-induced experimental autoimmune encephalomyelitis C57BL/6 mouse model assessed as fold change in APP gene expression in brain at 0.3 mg/kg/day, ig for 14 days starting from 12th day of immunization by RT-qPCR analysis relative to control. In kind it is functional. Conditions: time 14 day.
Assay [20] deals with Mus musculus. As to the kind of experiment: Anti-inflammatory activity against MOG35-55-induced experimental autoimmune encephalomyelitis C57BL/6 mouse model assessed as fold change in MBP gene expression in brain at 0.3 mg/kg/day, ig for 14 days starting from 12th day of immunization by RT-qPCR analysis relative to control. Format: functional. Conditions: time 14 day.
Assay [21] deals with Mus musculus. In words: Anti-inflammatory activity against MOG35-55-induced experimental autoimmune encephalomyelitis C57BL/6 mouse model assessed as methylation of CpG sites of IL10RA gene promoter in brain at […], ig for 14 days starting from 12th day of immunization by PCR analysis (reference value: 34.9 +/-4%). Format: functional. Particulars: time 14 day.
Assay [22] relates to Mus musculus. In words: Anti-inflammatory activity against MOG35-55-induced experimental autoimmune encephalomyelitis C57BL/6 mouse model assessed as fold change in TNF-alpha gene expression in brain at 0.3 mg/kg/day, ig for 14 days starting from 12th day of immunization by RT-qPCR analysis relative to control. In kind it is functional. Particulars: time 14 day.
The subject of assay [23] is Mus musculus. As to the kind of experiment: Anti-inflammatory activity against MOG35-55-induced experimental autoimmune encephalomyelitis C57BL/6 mouse model assessed as fold change in PLP gene expression in brain at 0.3 mg/kg/day, ig for 14 days starting from 12th day of immunization by RT-qPCR analysis relative to control. Particulars: time 14 day. In kind it is functional.

Molecules are shown by their SMILES. Activity calls are given as the source filed them. The rule behind the calls is not given here.

For the compound `CCCCCCCCCCCCCCCCCCCCCCCCC(=O)O[C@H]1CC[C@]2(C)[C@H]3CC=C4[C@@H]5CC(C)(C)CC[C@]5(CO)CC[C@@]4(C)[C@]3(C)CC[C@H]2C1(C)C`, the “fold change (FC)” value in [1] is on record as 11.4; in assay [2], 1.01; in assay [6], -1.18; in [7], 1.62; in assay [8], 2; in [9], -1.14. Moreover, the “fold change (FC)” value in assay [11] amounted to 2; in [12] it was 1.52; in assay [14], 1.93; in [15], 1.28. The outcome in [3], in [4], in [10] and in assay [13] was Active. The Activity in assay [5] turned out to be 9.3%.

On to `CCCCCCCCc1ccc(CCC(N)(CO)CO)cc1` [FINGOLIMOD], for which the “fold change (FC)” value in assay [16] was 1.86; in assay [18] it was 2.12; in assay [19] it was 1.72; in assay [20] it was 2.28; in [22], -1.46; in assay [23], -2.32. Besides, in assay [17], the outcome was Active. Moreover, the Activity in assay [21] is given as 51%.

The values above are taken from ChEMBL document CHEMBL5226375, “Synthesis and Comprehensive in Vivo Activity Profiling of Olean-12-en-28-ol, 3β-Pentacosanoate in Experimental Autoimmune Encephalomyelitis: A Natural Remyelinating and Anti-Inflammatory Agent” (J Nat Prod, 2023).
